Source: patent US9790219B2, “Compounds, compositions, and methods for increasing CFTR activity” (Proteostasis Therapeutics, Inc., priority 2014, dated 2017)

Key:
ΔF508-CFTR [1] = target: T1, ΔF508-CFTR (Homo sapiens, UniProt P13569, DEL508-508); assay: hBE equivalent current (Ieq) assay; format: cell-based; details: AUC of equivalent chloride current, primary hBE homozygous ΔF508, 24 h treatment
T1 construct: Primary lung epithelial cells homozygous for the Cystic Fibrosis-causing ΔF508 mutation; endogenous in cells; host or cells: primary human lung (bronchial) epithelial cells homozygous for ΔF508, differentiated at air-liquid interface
Experimental: Primary lung epithelial cells homozygous for the Cystic Fibrosis-causing ΔF508 mutation were differentiated for a minimum of 4 weeks in an air-liquid interface on Costar 24 well HTS filter plates prior to the equivalent current (Ieq) measurements. Cells were apically mucus-washed for 30 minutes 24 h prior to treatment with compounds. The basolateral media was removed and replaced with media containing the compound of interest diluted to its final concentration from DMSO stocks. Treated cells were incubated at 37° C. and 5% CO2 for 24 hours. At the end of the treatment period, the media was changed to the Ieq experimental solution for 30 minutes before the experiment and plates are maintained in a CO2-free incubator during this period. The plates containing the cells were then placed in pre-warmed heating blocks at 36° C.±0.5 for 15 minutes before measurements are taken. The transepithelial voltage (VT) and conductance (GT) were measured using a custom 24 channel current clamp (TECC-24) with 24 well electrode manifold. The Ieq assay measurements were made following additions with standardized time periods: • 1. The baseline VT and GT values were measured for approximately 20 minutes. • 2. Benzamil was added to block ENaC for 15 minutes. • 3. Forskolin plus VX-770 were added to maximally activate ΔF508-CFTR for 27 minutes. • 4. Bumetanide was added to inhibit the NaK2Cl cotransporter and shut-off secretion of chloride.
The activity data captured was the area under the curve (AUC) for the traces of the equivalent chloride current. The AUC was collected from the time of the forskolin/VX-770 addition until the inhibition by bumetanide addition. Correction in response to compound treatment was scored as the increase in the AUC for compound-treated samples over that of vehicle-treated samples. The results are shown below in Table 2 (++indicates activity ≧25% run at 10 uM of VX-809 at 1 uM; +indicates activity 10 to <25% run at 10 uM of VX-809 at 1 uM; ** indicates activity ≧200% of VX-809 (1 uM) with compound at 10 uM and VX-809 at 1 uM; * indicates activity 100-200% of VX-809 (1 uM) with compound at 10 uM and VX-809 at 1 uM)

ΔF508-CFTR [2] = target: T1, ΔF508-CFTR; assay: Ussing measurements; format: cell-based; details: CFTRinh-172 inhibitable short-circuit current, primary hBE homozygous ΔF508, 24 h treatment
Experimental: As discussed above, Ussing measurements can be used to measure CFTR activity. In this method, primary lung epithelial cells (hBEs) homozygous for the Cystic Fibrosis-causing ΔF508 mutation are differentiated for a minimum of 4 weeks in an air-liquid interface on SnapWell filter plates prior to the Ussing measurements. Cells are apically mucus-washed for 30 minutes prior to treatment with compounds. The basolateral media is removed and replaced with media containing the compound of interest diluted to its final concentration from DMSO stocks. Treated cells are incubated at 37° C. and 5% CO2 for 24 hours. At the end of the treatment period, the cells on filters are transferred to the Ussing chamber and equilibrated for 30 minutes. The short-circuit current is measured in voltage clamp-mode (Vhold=0 mV), and the entire assay is conducted at a temperature of 36° C.-36.5° C. Once the voltages stabilized, the chambers are clamped, and data is recorded by pulse readings every 5 seconds. Following baseline current stabilization, the following additions can be applied and the changes in current and resistance of the cells can be monitored: • 1. Benzamil to the apical chamber to inhibit ENaC sodium channel. • 2. Forskolin to both chambers to activate ΔF508-CFTR by phosphorylation. • 3. Genistein to both chambers to potentiate ΔF508-CFTR channel opening. • 4. CFTRinh-172 to the apical chamber to inhibit ΔF508-CFTR Cl-conductance.
The inhibitable current (that current that is blocked by CFTRinh-172) is measured as the specific activity of the ΔF508-CFTR channel, and increases in response to compound in this activity over that observed in vehicle-treated samples are identified as the correction of ΔF508-CFTR function imparted by the compound tested.

[3] = compound at 10 uM together with VX-809 at 1 uM, relative to VX-809 (1 uM)
[4] = compound alone at 10 uM, relative to VX-809 at 1 uM

T1 sequence (P13569 with tags, fused parts or gaps DEL508-508): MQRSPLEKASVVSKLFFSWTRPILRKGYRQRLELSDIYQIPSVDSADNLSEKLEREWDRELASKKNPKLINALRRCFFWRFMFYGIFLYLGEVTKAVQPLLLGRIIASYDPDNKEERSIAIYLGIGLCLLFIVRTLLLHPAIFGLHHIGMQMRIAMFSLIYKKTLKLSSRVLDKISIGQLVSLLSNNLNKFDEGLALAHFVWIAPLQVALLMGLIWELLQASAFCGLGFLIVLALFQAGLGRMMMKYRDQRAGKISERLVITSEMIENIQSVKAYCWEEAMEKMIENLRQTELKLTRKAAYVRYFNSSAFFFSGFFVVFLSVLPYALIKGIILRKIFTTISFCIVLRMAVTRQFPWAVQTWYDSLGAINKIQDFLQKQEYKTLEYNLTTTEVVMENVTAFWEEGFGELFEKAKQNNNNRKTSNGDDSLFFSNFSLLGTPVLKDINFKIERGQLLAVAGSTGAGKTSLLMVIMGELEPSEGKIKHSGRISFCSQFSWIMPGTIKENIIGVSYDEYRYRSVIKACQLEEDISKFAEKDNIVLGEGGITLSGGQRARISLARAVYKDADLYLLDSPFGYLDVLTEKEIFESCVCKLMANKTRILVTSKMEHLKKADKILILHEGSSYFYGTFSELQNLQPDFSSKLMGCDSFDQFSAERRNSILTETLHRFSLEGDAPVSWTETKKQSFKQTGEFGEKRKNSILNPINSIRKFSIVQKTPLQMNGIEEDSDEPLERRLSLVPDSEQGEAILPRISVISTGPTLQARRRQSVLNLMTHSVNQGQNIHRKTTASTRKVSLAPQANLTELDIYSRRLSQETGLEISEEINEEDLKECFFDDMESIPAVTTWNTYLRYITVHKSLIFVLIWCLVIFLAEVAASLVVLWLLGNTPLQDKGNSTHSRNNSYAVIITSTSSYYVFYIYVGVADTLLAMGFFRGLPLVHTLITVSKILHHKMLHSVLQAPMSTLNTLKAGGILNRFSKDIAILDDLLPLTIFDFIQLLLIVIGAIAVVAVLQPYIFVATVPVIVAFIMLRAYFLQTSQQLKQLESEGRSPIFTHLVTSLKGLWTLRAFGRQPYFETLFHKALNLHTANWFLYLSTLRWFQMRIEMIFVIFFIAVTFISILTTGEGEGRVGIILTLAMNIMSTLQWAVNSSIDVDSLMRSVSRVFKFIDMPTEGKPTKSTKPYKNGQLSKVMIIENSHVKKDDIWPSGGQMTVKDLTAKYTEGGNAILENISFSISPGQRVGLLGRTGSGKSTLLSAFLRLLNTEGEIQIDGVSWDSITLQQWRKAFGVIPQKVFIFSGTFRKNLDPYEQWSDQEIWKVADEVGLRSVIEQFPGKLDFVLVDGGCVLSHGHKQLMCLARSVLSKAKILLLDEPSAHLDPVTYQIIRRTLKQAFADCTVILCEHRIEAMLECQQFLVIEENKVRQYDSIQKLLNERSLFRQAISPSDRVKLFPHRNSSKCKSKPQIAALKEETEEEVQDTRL

Structure (SMILES) | Ieq Activity (ΔF508-CFTR [1]; [3]) | Ussing (ΔF508-CFTR [2]; [3]) | Ieq Activity (ΔF508-CFTR [1]; [4]) | Ussing (ΔF508-CFTR [2]; [4])
C[C@H](O)c1nnc(CCNC(=O)c2cc(-c3ccccc3)on2)o1 [Compound A18, (S)-N-(2-(5-(1-hydroxyethyl)-1,3,4-oxadiazol-2-yl)ethyl)-5-phenylisoxazole-3-carboxamide] | ** (** indicates activity ≧200% of VX-809 (1 uM) with compound at 10 uM and VX-809 at 1 uM) | ** (** indicates activity ≧200% of VX-809 (1 uM) with compound at 10 uM and VX-809 at 1 uM) |  | 
C[C@H](O)c1nnc(CCNC(=O)c2cc(-c3ccccc3)on2)s1 [Compound A17, (S)-N-(2-(5-(1-hydroxyethyl)-1,3,4-thiadiazol-2-yl)ethyl)-5-phenylisoxazole-3-carboxamide] | ** (** indicates activity ≧200% of VX-809 (1 uM) with compound at 10 uM and VX-809 at 1 uM) | ** (** indicates activity ≧200% of VX-809 (1 uM) with compound at 10 uM and VX-809 at 1 uM) |  | 
O=C(NCCc1nnc(CO)o1)c1cc(-c2ccccc2)on1 [Compound A1, N-(2-(5-(hydroxymethyl)-1,3,4-oxadiazol-2-yl)ethyl)-5-phenylisoxazole-3-carboxamide] | ** (** indicates activity ≧200% of VX-809 (1 uM) with compound at 10 uM and VX-809 at 1 uM) | ** (** indicates activity ≧200% of VX-809 (1 uM) with compound at 10 uM and VX-809 at 1 uM) | ++ (++indicates activity ≧25% run at 10 uM of VX-809 at 1 uM) | ++ (++indicates activity ≧25% run at 10 uM of VX-809 at 1 uM)
O=C(NCCc1nnc([C@@H](O)CO)o1)c1cc(-c2ccccc2)on1 [Compound A22, (S)-N-(2-(5-(1,2-dihydroxyethyl)-1,3,4-oxadiazol-2-yl)ethyl)-5-phenyl isoxazole-3-carboxamide carboxamide] | ** (** indicates activity ≧200% of VX-809 (1 uM) with compound at 10 uM and VX-809 at 1 uM) | ** (** indicates activity ≧200% of VX-809 (1 uM) with compound at 10 uM and VX-809 at 1 uM) |  | 
O=C(NCCc1nnc([C@H](O)CO)s1)c1cc(-c2ccccc2)on1 [Compound A20, (R)-N-(2-(5-(1,2-dihydroxyethyl)-1,3,4-thiadiazol-2-yl)ethyl)-5-phenylisoxazole-3-carboxamide] | ** (** indicates activity ≧200% of VX-809 (1 uM) with compound at 10 uM and VX-809 at 1 uM) | ** (** indicates activity ≧200% of VX-809 (1 uM) with compound at 10 uM and VX-809 at 1 uM) |  | 
O=C(NCCc1nnc([C@@H](O)CO)s1)c1cc(-c2ccccc2)on1 [Compound A21, (S)-N-(2-(5-(1,2-dihydroxyethyl)-1,3,4-thiadiazol-2-yl)ethyl)-5-phenyl isoxazole-3-carboxamide] | ** (** indicates activity ≧200% of VX-809 (1 uM) with compound at 10 uM and VX-809 at 1 uM) | ** (** indicates activity ≧200% of VX-809 (1 uM) with compound at 10 uM and VX-809 at 1 uM) |  | 
O=C(NCCc1nnc([C@H](O)CO)o1)c1cc(-c2ccccc2)on1 [Compound A19, (R)-N-(2-(5-(1,2-dihydroxyethyl)-1,3,4-oxadiazol-2-yl)ethyl)-5-phenylisoxazole-3-carboxamide] | ** (** indicates activity ≧200% of VX-809 (1 uM) with compound at 10 uM and VX-809 at 1 uM) | ** (** indicates activity ≧200% of VX-809 (1 uM) with compound at 10 uM and VX-809 at 1 uM) |  | 
